In ChEMBL document CHEMBL1150744, “Antifungal activity of Trillium grandiflorum constituents” (J Nat Prod, 1988):
≈ marks a conversion by molar mass, not a printed value.

Experiments:
Aspergillus flavus = assay: Antifungal activity against Aspergillus flavus ATCC 9170 by twofold serial broth dilution assay; type: functional
Candida albicans [1] = assay: Antifungal activity against Candida albicans WH-D by twofold serial broth dilution assay; type: functional
Candida albicans [2] = assay: Antifungal activity against Candida albicans ATCC 10231 by twofold serial broth dilution assay; type: functional
Saccharomyces cerevisiae = assay: Antifungal activity against Saccharomyces cerevisiae ATCC 9763 by twofold serial broth dilution assay; type: functional
[3] = tested on: Trichophyton mentagrophytes; assay: Antifungal activity against Trichophyton mentagrophytes ATCC 9972 by twofold serial broth dilution assay; type: functional
Cryptococcus neoformans = assay: Antifungal activity against Cryptococcus neoformans ATCC 32264 by twofold serial broth dilution assay; type: functional
[4] = Toxicity in ip dosed ICR mouse assessed as morbidity and lethality after 14 days; type: organism-based; conditions: in vivo
Candida albicans [5] = assay: Antifungal activity against Candida albicans NIH B311 after 24 hrs by […]; type: functional; conditions: NIH B311, 24 h
Aspergillus fumigatus = assay: Antifungal activity against Aspergillus fumigatus ATCC 26934 by twofold serial broth dilution assay; type: functional
[6] = Toxicity in iv dosed ICR mouse assessed as morbidity and lethality after 14 days; type: organism-based; conditions: in vivo
Candida albicans [7] = assay: Antifungal activity against Candida albicans NIH B311 infected in ICR mouse assessed as reduction in number of recovered colony forming units at 0.5 mg/kg, ip administered after 7 hrs inoculation measured after 16 hrs; type: functional; design: scale not given: the % may be the effect or the level left; conditions: route intraperitoneal

| Structure (SMILES) | MIC (Aspergillus flavus) [µg/mL] | MIC (Candida albicans [1]) [µg/mL] | MIC (Candida albicans [2]) [µg/mL] | MIC (Saccharomyces cerevisiae) [µg/mL] | MIC [3] [µg/mL] | MIC (Cryptococcus neoformans) [µg/mL] | LD50 at 336 h [4] [mg/kg] | MIC (Candida albicans [5]) [µg/mL] | MIC (Aspergillus fumigatus) [µg/mL] | LD50 at 336 h [6] [mg/kg] | Activity (Candida albicans [7]) [%] |
| --- | --- | --- | --- | --- | --- | --- | --- | --- | --- | --- | --- |
| C[C@@H]1CC[C@@]2(OC1)O[C@H]1C[C@H]3[C@@H]4CC=C5C[C@@H](O[C@@H]6O[C@H](CO)[C@@H](O[C@@H]7O[C@@H](C)[C@H](O)[C@@H](O)[C@H]7O)[C@H](O)[C@H]6O[C@@H]6O[C@@H](C)[C@H](O)[C@@H](O)[C@H]6O)CC[C@]5(C)[C@H]4CC[C@]3(C)[C@H]1[C@@H]2C [DIOSCIN] | 100 (≈ 115 µM) | 6.25 (≈ 7.19 µM) | 3.12 (≈ 3.59 µM) | 25 (≈ 28.8 µM) | 6.25 (≈ 7.19 µM) | 25 (≈ 28.8 µM) | 38 | 1.56 (≈ 1.8 µM) | 50 (≈ 57.5 µM) | 10 | – |
| C[C@@H]1[C@H](O)[C@@H](C)/C=C/C=C/C=C/C=C/C=C/C=C/C=C/[C@H](O[C@@H]2O[C@H](C)[C@@H](O)[C@H](N)[C@@H]2O)C[C@@H]2O[C@](O)(C[C@@H](O)C[C@@H](O)[C@H](O)CC[C@@H](O)C[C@@H](O)CC(=O)O[C@H]1C)C[C@H](O)[C@H]2C(=O)O [AMPHOTERICIN B] | 50 (≈ 54.1 µM) | 0.78 (≈ 0.844 µM) | 1.56 (≈ 1.69 µM) | 25 (≈ 27.1 µM) | 50 (≈ 54.1 µM) | 1.56 (≈ 1.69 µM) | – | 0.39 (≈ 0.422 µM) | 100 (≈ 108 µM) | 1 | 97.5 |
| C[C@@H]1CC[C@@]2(OC1)O[C@H]1C[C@H]3[C@@H]4CC=C5C[C@@H](O[C@@H]6O[C@H](CO)[C@@H](O[C@@H]7O[C@@H](C)[C@H](O[C@@H]8O[C@@H](C)[C@H](O)[C@@H](O)[C@H]8O)[C@@H](O)[C@H]7O)[C@H](O)[C@H]6O[C@@H]6O[C@@H](C)[C@H](O)[C@@H](O)[C@H]6O)CC[C@]5(C)[C@H]4CC[C@]3(C)[C@H]1[C@@H]2C [PENNOGENIN RAHAMNOSYL CHACOTRIOSIDE] | 100 (≈ 98.5 µM) | 12.5 (≈ 12.3 µM) | 12.5 (≈ 12.3 µM) | 12.5 (≈ 12.3 µM) | 3.12 (≈ 3.07 µM) | 12.5 (≈ 12.3 µM) | 28 | 6.25 (≈ 6.16 µM) | 100 (≈ 98.5 µM) | 5 | – |
